Key:
Assay in all cases: NCI one-dose SRB anti-proliferative screen
BT-549 = assay type: cell-based; details: Homo sapiens; BT-549, Breast cancer; NCI one dose; read-out: Cell growth inhibition %
Protocol: (§1) The twenty-four synthesized compounds were submitted to the National Cancer Institute (NCI), USA. Eighteen hybrids 7a-h, 7k-r, 7u, and 7v were selected by NCI for one-dose assessment of their anti-proliferative activities at 10 µM dose by Sulforhodamine B colorimetric assay. The assessment was performed in 60 cell lines derived from nine tumor subpanels, comprising lung, leukemia, melanoma, colon, renal, CNS, prostate, breast, and ovarian cancer cell lines.
(§2) The methodology of the NCI anti-proliferative screening has been described in details elsewhere (http://www.dtp.nci.nih.gov).

MCF7 = assay type: cell-based; details: Homo sapiens; MCF7, Breast cancer; NCI one dose; read-out: Cell growth inhibition %
Protocol: as §1, §2

SK-MEL-2 = assay type: cell-based; details: Homo sapiens; SK-MEL-2, Melanoma; NCI one dose; read-out: Cell growth inhibition %
Protocol: as §1, §2

MALME-3M = assay type: cell-based; details: Homo sapiens; MALME-3M, Melanoma; NCI one dose; read-out: Cell growth inhibition %
Protocol: as §1, §2

HS 578T = assay type: cell-based; details: Homo sapiens; HS 578T, Breast cancer; NCI one dose; read-out: Cell growth inhibition %
Protocol: as §1, §2

PC-3 = assay type: cell-based; details: Homo sapiens; PC-3, Prostate Cancer; NCI one dose; read-out: Cell growth inhibition %
Protocol: as §1, §2

M14 = assay type: cell-based; details: Homo sapiens; M14, Melanoma; NCI one dose; read-out: Cell growth inhibition %
Protocol: as §1, §2

OVCAR-8 = assay type: cell-based; details: Homo sapiens; OVCAR-8, Ovarian Cancer; NCI one dose; read-out: Cell growth inhibition %
Protocol: as §1, §2

UACC-62 = assay type: cell-based; details: Homo sapiens; UACC-62, Melanoma; NCI one dose; read-out: Cell growth inhibition %
Protocol: as §1, §2

SNB-75 = assay type: cell-based; details: Homo sapiens; SNB-75, CNS Cancer; NCI one dose; read-out: Cell growth inhibition %
Protocol: as §1, §2

RPMI-8226 = assay type: cell-based; details: Homo sapiens; RPMI-8226, Leukemia; NCI one dose; read-out: Cell growth inhibition %
Protocol: as §1, §2

SK-OV-3 = assay type: cell-based; details: Homo sapiens; SK-OV-3, Ovarian Cancer; NCI one dose; read-out: Cell growth inhibition %
Protocol: as §1, §2

COLO 205 = assay type: cell-based; details: Homo sapiens; COLO 205, Colon cancer; NCI one dose; read-out: Cell growth inhibition %
Protocol: as §1, §2

OVCAR-5 = assay type: cell-based; details: Homo sapiens; OVCAR-5, Ovarian Cancer; NCI one dose; read-out: Cell growth inhibition %
Protocol: as §1, §2

CCRF-CEM = assay type: cell-based; details: Homo sapiens; CCRF-CEM, Leukemia; NCI one dose; read-out: Cell growth inhibition %
Protocol: as §1, §2

NCI-H522 = assay type: cell-based; details: Homo sapiens; NCI-H522, Non-Small Cell Lung Cancer; NCI one dose; read-out: Cell growth inhibition %
Protocol: as §1, §2

HCT-15 = assay type: cell-based; details: Homo sapiens; HCT-15, Colon cancer; NCI one dose; read-out: Cell growth inhibition %
Protocol: as §1, §2

EKVX = assay type: cell-based; details: Homo sapiens; EKVX, Non-Small Cell Lung Cancer; NCI one dose; read-out: Cell growth inhibition %
Protocol: as §1, §2

SN12C = assay type: cell-based; details: Homo sapiens, SN 12C, Renal cancer, NCI one dose, read-out: Cell growth inhibition %
Protocol: as §1, §2

UO-31 = assay type: cell-based; details: Homo sapiens; UO-31, Renal cancer; NCI one dose; read-out: Cell growth inhibition %
Protocol: as §1, §2

SK-MEL-28 = assay type: cell-based; details: Homo sapiens; SK-MEL-28, Melanoma; NCI one dose; read-out: Cell growth inhibition %
Protocol: as §1, §2

MDA-MB-435 = assay type: cell-based; details: Homo sapiens; MDA-MB-435, Melanoma; NCI one dose; read-out: Cell growth inhibition %
Protocol: as §1, §2

UACC-257 = assay type: cell-based; details: Homo sapiens; UACC-257, Melanoma; NCI one dose; read-out: Cell growth inhibition %
Protocol: as §1, §2

IGROV1 = assay type: cell-based; details: Homo sapiens, IGROV-1; IGROV1, Ovarian Cancer; NCI one dose; read-out: Cell growth inhibition %
Protocol: as §1, §2

A549/ATCC = assay type: cell-based; details: Homo sapiens; A549/ATCC, Non-Small Cell Lung Cancer; NCI one dose; read-out: Cell growth inhibition %
Protocol: as §1, §2

HOP-62 = assay type: cell-based; details: Homo sapiens; HOP-62, Non-Small Cell Lung Cancer; NCI one dose; read-out: Cell growth inhibition %
Protocol: as §1, §2

K-562 = assay type: cell-based, human; details: for inhibition at 10 µM: Homo sapiens, K562, K-562, Leukemia, NCI one dose, read-out: Cell growth inhibition %
Protocol: as §1, §2

HCT-116 = assay type: cell-based, human; details: for inhibition at 10 µM: Homo sapiens, HCT-116, Colon cancer, NCI one dose, read-out: Cell growth inhibition %
Protocol: as §1, §2

RXF 393 = assay type: cell-based, human; details: Homo sapiens; RXF 393, Renal cancer; NCI one dose; read-out: Cell growth inhibition %
Protocol: as §1, §2

MOLT-4 = assay type: cell-based, human; details: Homo sapiens; MOLT-4, Leukemia; NCI one dose; read-out: Cell growth inhibition %
Protocol: as §1, §2

T-47D = assay type: cell-based, human; details: Homo sapiens, T47D; T-47D, Breast cancer; NCI one dose; read-out: Cell growth inhibition %
Protocol: as §1, §2

SMILES | inhibition at 10 µM (BT-549) [%] | inhibition at 10 µM (MCF7) [%] | inhibition at 10 µM (SK-MEL-2) [%] | inhibition at 10 µM (MALME-3M) [%] | inhibition at 10 µM (HS 578T) [%] | inhibition at 10 µM (PC-3) [%] | inhibition at 10 µM (OVCAR-8) [%] | inhibition at 10 µM (UACC-62) [%] | inhibition at 10 µM (SNB-75) [%] | inhibition at 10 µM (RPMI-8226) [%] | inhibition at 10 µM (SK-OV-3) [%] | inhibition at 10 µM (COLO 205) [%] | inhibition at 10 µM (OVCAR-5) [%] | inhibition at 10 µM (CCRF-CEM) [%] | inhibition at 10 µM (NCI-H522) [%] | inhibition at 10 µM (HCT-15) [%] | inhibition at 10 µM (EKVX) [%] | inhibition at 10 µM (SN12C) [%] | inhibition at 10 µM (UO-31) [%] | inhibition at 10 µM (SK-MEL-28) [%] | further results
COc1ccc(-c2nc3cc(-c4nnc(SCC(=O)Nc5ccc(C(=O)/C=C/c6ccc(OC)c(OC)c6)cc5)o4)ccc3[nH]2)cc1 [Compound 7n, 2-{5-[2-(4-Methoxyphenyl)-1 H-benzo[d]imidazol-5-yl]-1,3,4-oxadiazol-2-ylthio}-N-{4-[(E)-3-(3,4-dimethoxyphenyl)acryloyl]phenyl}acetamide] | 1.04 | 55.5 | 6.27 | 14.6 | 7.35 | 2.83 | 7.51 | 15.8 | 22.1 | 32.3 | 0 | 0 | 0 | 38.8 | 24.6 | 31.8 | 4.36 | 8.67 | 26.4 | 3.97 | inhibition at 10 µM (M14): 10.6%; inhibition at 10 µM (MDA-MB-435): 6.15%; inhibition at 10 µM (UACC-257): 1.66%; inhibition at 10 µM (IGROV1): 12.3%; inhibition at 10 µM (A549/ATCC): 3.19%; inhibition at 10 µM (HOP-62): 5.22%; inhibition at 10 µM (K-562): 52.1%; Growth Percent (K-562; K-562 (Leukemia), 10 µM one dose): 47%; Growth Percent (HCT-116; HCT-116 (Colon Cancer), 10 µM one dose): 57.96%; inhibition at 10 µM (HCT-116): 42%; inhibition at 10 µM (RXF 393): 31.5%; inhibition at 10 µM (MOLT-4): 35.7%; inhibition at 10 µM (T-47D): 15.4%
O=C(CSc1nnc(-c2ccc3[nH]c(-c4ccccc4)nc3c2)o1)Nc1ccc(C(=O)/C=C/c2ccccc2)cc1 [Compound 7a, 2-{5-[2-Phenyl-1 H-benzo[d]imidazol-5-yl]-1,3,4-oxadiazol-2-ylthio}-N-{4-[(E)-3-phenylacryloyl]phenyl}acetamide] | 3.16 | 12.4 | 0 | 5.5 | 0 | 0 | 0.04 | 2.91 | 0 | 5.75 | 0 | 0 | 0 | 0 | 6.57 | 0 | 0 | 2.04 | 12.6 | 0 | inhibition at 10 µM (MDA-MB-435): 0%; inhibition at 10 µM (UACC-257): 0%; inhibition at 10 µM (IGROV1): 4.17%; inhibition at 10 µM (A549/ATCC): 0%; inhibition at 10 µM (HOP-62): 0%; inhibition at 10 µM (K-562): 0%; inhibition at 10 µM (HCT-116): 3.03%; inhibition at 10 µM (RXF 393): 0%; inhibition at 10 µM (MOLT-4): 6.84%; inhibition at 10 µM (T-47D): 1.45%

Source: article PMC10504751, “Chalcone/1,3,4-Oxadiazole/Benzimidazole hybrids as novel anti-proliferative agents inducing apoptosis and inhibiting EGFR & BRAFV^600E” (BMC Chemistry, 2023)
